The values below come from patent US10940135B2, “Paclitaxel pharmaceutical composition and pharmaceutical preparation thereof, preparation process and use thereof” (Sinotherapeutics Inc., priority 2016, dated 2021).

Data set [1] in a line: Dissolution determination (USP II method, pH 6.8 buffer + 0.2% Tween 80). The class given is physicochemical. Conditions: pH 6.8 buffer + 0.2% Tween 80, 100 rpm, 37.5° C. The text has this: Dissolution Determination:
Wherein pH6.8 represents the environment simulating the human intestinal tract (small intestine).
Analysis of dissolved sample: the solution obtained in the dissolution determination test was filtered with a 0.45 μm filter membrane, then the filtrate was collected, further diluted with an appropriate amount of methanol, mixed by vortex and analyzed by HPLC. The HPLC analysis method of the dissolved sample was the same as the HPLC analysis method mentioned above in the solubility determination.

Data set [2] is described as follows: Apparent solubility determination in pH 6.8 phosphate buffer. The class given is physicochemical. The method, then: Apparent solubility determination: an excessive amount of the pharmaceutical compositions was weighed and put into a container. Phosphate buffer solution with pH6.8 was added respectively. The volume of the phosphate buffer solution was about 2/3 of volume of the container. The container was then shaken in a shaking table at 37° C. for 3 h. The resulting solution was filtered with a 0.45 μm filter membrane, then the filtrate was collected, further diluted with an appropriate amount of methanol, mixed by vortex and analyzed by HPLC.
Wherein the HPLC analysis parameters are as follows: […]

The conditions of data set [3]: cited from earlier work.
For data set [4] the following is noted: cited from earlier work. This is another data set of the same source.
The conditions of data set [5]: reported as 0.1˜<10 μg/ml; cited from earlier work.

The structures appear in SMILES notation. ≈ marks a conversion by molar mass, not a printed value.

Consider `CC(=O)O[C@H]1C(=O)[C@@]2(C)[C@H]([C@H](OC(=O)c3ccccc3)[C@]3(O)C[C@H](OC(=O)[C@H](O)[C@@H](NC(=O)c4ccccc4)c4ccccc4)C(C)=C1C3(C)C)[C@]1(OC(C)=O)CO[C@@H]1C[C@@H]2O` [Bulk drug, 5β,20-epoxy-1,2α,4,7β,10β,13α-hexahydroxytaxane-11-ene-9-one-4,10-diacetate-2-benzoate-13[(2′R,3′S)—N-benzoyl-3-phenylisoserine ester]], for which the Dissolution % in data set [1] (15 min) came to 13.1%; in data set [1] (30 min), 14.5%; in data set [1] (45 min), 14.6%; in data set [1] (60 min) it was 14.8%; in data set [1] (120 min), 14.1%. In data set [2], the “Ratio of solubility (composition/bulk drug)” value is given as 1. Also, the solubility at 3 h in data set [2] (aqueous buffer, thermodynamic from solid, apparent solubility, 37° C., shaken 3 h) was found to be 4 µg/mL (≈ 4.68 µM). In addition, in data set [3], the pKa is given as 11.99. Further, in data set [4], the oral bioavailability entry is reported as “about 2%”. Also, the solubility in water entry in data set [5] was “lower than 10 μg/ml”.

Broadly, the solubility is the concentration that dissolves in the medium under given conditions. By pKa is commonly meant the pH at which an ionisable group is half protonated.
